From ChEMBL document CHEMBL3112491, “3-(5-)-Amino-o-diarylisoxazoles: regioselective synthesis and antitubulin activity” (2014)

Key:
Assay type in all cases: functional
MDA-MB-468 = assay: Growth inhibition of human MDA-MB-468 cells after 48 hrs by sulforhodamine B assay; conditions: MDA-MB-468, 48 h
T47D = assay: Growth inhibition of human T47D cells after 48 hrs by sulforhodamine B assay
[1] = Growth inhibition of human Hs 578T cells after 48 hrs by sulforhodamine B assay
BT-549 = assay: Growth inhibition of human BT549 cells after 48 hrs by sulforhodamine B assay; conditions: BT-549, 48 h
MCF7 = assay: Growth inhibition of human MCF7 cells after 48 hrs by sulforhodamine B assay; conditions: MCF7, 48 h
MDA-MB-231 = assay: Growth inhibition of human MDA-MB-231 cells after 48 hrs by sulforhodamine B assay; conditions: MDA-MB-231, 48 h
DU-145 = assay: Growth inhibition of human DU145 cells after 48 hrs by sulforhodamine B assay; conditions: DU-145, 48 h
PC-3 = assay: Growth inhibition of human PC3 cells after 48 hrs by sulforhodamine B assay; conditions: PC-3, 48 h
[2] = Growth inhibition of human UO31 cells after 48 hrs by sulforhodamine B assay; conditions: UO-31, 48 h
SN12C = assay: Growth inhibition of human SN12C cells after 48 hrs by sulforhodamine B assay
TK-10 = assay: Growth inhibition of human TK10 cells after 48 hrs by sulforhodamine B assay; conditions: TK-10, 48 h
[3] = Growth inhibition of human RXF393 cells after 48 hrs by sulforhodamine B assay; conditions: RXF 393, 48 h
A498 = assay: Growth inhibition of human A498 cells after 48 hrs by sulforhodamine B assay; conditions: A498, 48 h
ACHN = assay: Growth inhibition of human ACHN cells after 48 hrs by sulforhodamine B assay
786-0 = assay: Growth inhibition of human 786-0 cells after 48 hrs by sulforhodamine B assay; conditions: 786-0, 48 h
SK-OV-3 = assay: Growth inhibition of human SKOV3 cells after 48 hrs by sulforhodamine B assay; conditions: SK-OV-3, 48 h
OVCAR-8 = assay: Growth inhibition of human OVCAR8 cells after 48 hrs by sulforhodamine B assay; conditions: OVCAR-8, 48 h
[4] = Growth inhibition of human NCI-ADR-RES cells after 48 hrs by sulforhodamine B assay
[5] = Growth inhibition of human OVCAR4 cells after 48 hrs by sulforhodamine B assay; conditions: OVCAR-4, 48 h
[6] = Growth inhibition of human OVCAR5 cells after 48 hrs by sulforhodamine B assay; conditions: OVCAR-5, 48 h
IGROV-1 = assay: Growth inhibition of human IGROV1 cells after 48 hrs by sulforhodamine B assay; conditions: IGROV-1, 48 h
OVCAR-3 = assay: Growth inhibition of human OVCAR3 cells after 48 hrs by sulforhodamine B assay; conditions: OVCAR-3, 48 h
[7] = Growth inhibition of human UACC257 cells after 48 hrs by sulforhodamine B assay; conditions: UACC-257, 48 h
UACC-62 = assay: Growth inhibition of human UACC62 cells after 48 hrs by sulforhodamine B assay; conditions: UACC-62, 48 h
SK-MEL-28 = assay: Growth inhibition of human SK-MEL-28 cells after 48 hrs by sulforhodamine B assay; conditions: SK-MEL-28, 48 h
SK-MEL-5 = assay: Growth inhibition of human SK-MEL-5 cells after 48 hrs by sulforhodamine B assay; conditions: SK-MEL-5, 48 h
MDA-MB-435 = assay: Growth inhibition of human MDA-MB-435 cells after 48 hrs by sulforhodamine B assay; conditions: MDA-MB-435, 48 h
SK-MEL-2 = assay: Growth inhibition of human SK-MEL-2 cells after 48 hrs by sulforhodamine B assay; conditions: SK-MEL-2, 48 h
M14 = assay: Growth inhibition of human M14 cells after 48 hrs by sulforhodamine B assay; conditions: M14, 48 h
LOX IMVI = assay: Growth inhibition of human LOXIMVI cells after 48 hrs by sulforhodamine B assay
U-251 = assay: Growth inhibition of human U251 cells after 48 hrs by sulforhodamine B assay; conditions: U-251, 48 h
SNB-75 = assay: Growth inhibition of human SNB75 cells after 48 hrs by sulforhodamine B assay; conditions: SNB-75, 48 h
[8] = Growth inhibition of human SF539 cells after 48 hrs by sulforhodamine B assay; conditions: SF-539, 48 h
SNB-19 = assay: Growth inhibition of human SNB19 cells after 48 hrs by sulforhodamine B assay; conditions: SNB-19, 48 h
SF-295 = assay: Growth inhibition of human SF295 cells after 48 hrs by sulforhodamine B assay; conditions: SF-295, 48 h
SF-268 = assay: Growth inhibition of human SF268 cells after 48 hrs by sulforhodamine B assay; conditions: SF-268, 48 h
SW-620 = assay: Growth inhibition of human SW620 cells after 48 hrs by sulforhodamine B assay; conditions: SW-620, 48 h
KM12 = assay: Growth inhibition of human KM12 cells after 48 hrs by sulforhodamine B assay; conditions: KM12, 48 h
HT-29 = assay: Growth inhibition of human HT-29 cells after 48 hrs by sulforhodamine B assay; conditions: HT-29, 48 h
HCT-15 = assay: Growth inhibition of human HCT15 cells after 48 hrs by sulforhodamine B assay; conditions: HCT-15, 48 h
HCT-116 = assay: Growth inhibition of human HCT116 cells after 48 hrs by sulforhodamine B assay; conditions: HCT-116, 48 h
[9] = Growth inhibition of human HCC2998 cells after 48 hrs by sulforhodamine B assay; conditions: HCC 2998, 48 h
COLO 205 = assay: Growth inhibition of human COLO205 cells after 48 hrs by sulforhodamine B assay; conditions: COLO 205, 48 h
NCI-H522 = assay: Growth inhibition of human NCI-H522 cells after 48 hrs by sulforhodamine B assay; conditions: NCI-H522, 48 h
NCI-H460 = assay: Growth inhibition of human NCI-H460 cells after 48 hrs by sulforhodamine B assay; conditions: NCI-H460, 48 h
NCI-H322M = assay: Growth inhibition of human NCI-H322M cells after 48 hrs by sulforhodamine B assay
NCI-H23 = assay: Growth inhibition of human NCI-H23 cells after 48 hrs by sulforhodamine B assay; conditions: NCI-H23, 48 h
NCI-H226 = assay: Growth inhibition of human NCI-H226 cells after 48 hrs by sulforhodamine B assay; conditions: NCI-H226, 48 h
HOP-62 = assay: Growth inhibition of human HOP62 cells after 48 hrs by sulforhodamine B assay; conditions: HOP-62, 48 h
[10] = Growth inhibition of human HOP92 cells after 48 hrs by sulforhodamine B assay; conditions: HOP-92, 48 h
A549 = assay: Growth inhibition of human A549/ATCC cells after 48 hrs by sulforhodamine B assay; conditions: A549, 48 h
[11] = Growth inhibition of human EKVX cells after 48 hrs by sulforhodamine B assay
SR = assay: Growth inhibition of human SR cells after 48 hrs by sulforhodamine B assay
MOLT-4 = assay: Growth inhibition of human MOLT4 cells after 48 hrs by sulforhodamine B assay; conditions: MOLT-4, 48 h
HL-60(TB) = assay: Growth inhibition of human HL-60(TB) cells after 48 hrs by sulforhodamine B assay; conditions: HL-60, 48 h
Paracentrotus lividus [12] = assay: Microtubule destabilizing activity in sea urchin free-swimming blastula assessed as embryo spinning treated at 9 to 10 hrs post-fertilization measured after 0.15 to 15 hrs
Paracentrotus lividus [13] = assay: Antimitotic activity in sea urchin fertilized egg assessed as cleavage arrest treated at 8 to 20 mins post-fertilization measured at 2.5 to 5.5 hrs post-fertilization
Paracentrotus lividus [14] = assay: Antimitotic activity in sea urchin fertilized egg assessed as cleavage alteration treated at 8 to 20 mins post-fertilization measured at 2.5 to 5.5 hrs post-fertilization
Malme-3M = assay: Growth inhibition of human MALME-3M cells after 48 hrs by sulforhodamine B assay

COc1ccc(-c2c(-c3cc4c(c(OC)c3OC)OCO4)noc2N)cc1
GI50 (MDA-MB-468): 138 nM | GI50 (T47D): 568 nM | GI50 [1]: 438 nM | GI50 (BT-549): 848 nM | GI50 (MCF7): 280 nM | GI50 (MDA-MB-231): 983 nM | GI50 (DU-145): 487 nM | GI50 (PC-3): 300 nM | GI50 [2]: 669 nM | GI50 (SN12C): 818 nM | GI50 (TK-10): 202 nM | GI50 [3]: 335 nM | GI50 (A498): 374 nM | GI50 (ACHN): 831 nM | GI50 (786-0): 578 nM | GI50 (SK-OV-3): 338 nM | GI50 (OVCAR-8): 448 nM | GI50 [4]: 126 nM | GI50 [5]: 927 nM | GI50 [6]: 2100 nM | GI50 (IGROV-1): 683 nM | GI50 (OVCAR-3): 184 nM | GI50 [7]: 458 nM | GI50 (UACC-62): 513 nM | GI50 (SK-MEL-28): 497 nM | GI50 (SK-MEL-5): 238 nM | GI50 (MDA-MB-435): 29.2 nM | GI50 (SK-MEL-2): 362 nM | GI50 (M14): 244 nM | GI50 (LOX IMVI): 523 nM | GI50 (U-251): 359 nM | GI50 (SNB-75): 138 nM | GI50 [8]: 285 nM | GI50 (SNB-19): 672 nM | GI50 (SF-295): 274 nM | GI50 (SF-268): 641 nM | GI50 (SW-620): 210 nM | GI50 (KM12): 112 nM | GI50 (HT-29): 262 nM | GI50 (HCT-15): 352 nM | GI50 (HCT-116): 314 nM | GI50 [9]: 524 nM | GI50 (COLO 205): 272 nM | GI50 (NCI-H522): 65.5 nM | GI50 (NCI-H460): 364 nM | GI50 (NCI-H322M): 625 nM | GI50 (NCI-H23): 391 nM | GI50 (NCI-H226): 855 nM | GI50 (HOP-62): 551 nM | GI50 [10]: 837 nM | GI50 (A549): 523 nM | GI50 [11]: 23600 nM | GI50 (SR): 35.9 nM | GI50 (MOLT-4): 674 nM | GI50 (HL-60(TB)): 189 nM | EC (Paracentrotus lividus [12]): 2 µM | EC (Paracentrotus lividus [13]): 0.2 µM | EC (Paracentrotus lividus [14]): 0.02 µM

COc1ccc(-c2c(-c3cc(OC)c(OC)c(OC)c3)noc2N)cc1
GI50 (MDA-MB-468): < 10 nM | GI50 [1]: < 10 nM | GI50 (BT-549): 19.3 nM | GI50 (MCF7): < 10 nM | GI50 (MDA-MB-231): 31.9 nM | GI50 (DU-145): 13.5 nM | GI50 (PC-3): < 10 nM | GI50 [2]: < 10 nM | GI50 (SN12C): 32.8 nM | GI50 (TK-10): 10500 nM | GI50 (A498): < 10 nM | GI50 (ACHN): < 10 nM | GI50 (786-0): < 10 nM | GI50 (SK-OV-3): < 10 nM | GI50 (OVCAR-8): 13.9 nM | GI50 [4]: < 10 nM | GI50 [5]: 14.5 nM | GI50 [6]: 46.6 nM | GI50 (IGROV-1): 10.6 nM | GI50 (OVCAR-3): < 10 nM | GI50 [7]: < 10 nM | GI50 (UACC-62): < 10 nM | GI50 (SK-MEL-5): < 10 nM | GI50 (MDA-MB-435): < 10 nM | GI50 (SK-MEL-2): 18.8 nM | GI50 (M14): < 10 nM | GI50 (Malme-3M): 13400 nM | GI50 (LOX IMVI): < 10 nM | GI50 (U-251): < 10 nM | GI50 (SNB-75): < 10 nM | GI50 [8]: < 10 nM | GI50 (SNB-19): 25.1 nM | GI50 (SF-295): < 10 nM | GI50 (SF-268): < 10 nM | GI50 (SW-620): < 10 nM | GI50 (KM12): < 10 nM | GI50 (HT-29): < 10 nM | GI50 (HCT-15): < 10 nM | GI50 (HCT-116): < 10 nM | GI50 [9]: 15.1 nM | GI50 (COLO 205): < 10 nM | GI50 (NCI-H522): < 10 nM | GI50 (NCI-H460): < 10 nM | GI50 (NCI-H322M): 56.7 nM | GI50 (NCI-H23): 14.9 nM | GI50 (NCI-H226): 24.4 nM | GI50 (HOP-62): 14.4 nM | GI50 [10]: < 10 nM | GI50 (A549): < 10 nM | GI50 [11]: 15200 nM | GI50 (SR): < 10 nM | GI50 (MOLT-4): 27.4 nM | GI50 (HL-60(TB)): < 10 nM | EC (Paracentrotus lividus [12]): 0.5 µM | EC (Paracentrotus lividus [13]): 0.005 µM | EC (Paracentrotus lividus [14]): 0.002 µM
